How the values were obtained:
[1] = test system: relaxed pBR 322 plasmid DNA; experiment: DNA unwinding assay, relaxed plasmid as substrate; format: binding; details: 10 µM, in the presence of Topo I
Source text: Compounds that are able to intercalate into DNA or bind in the groove are involved in the local unwinding of the DNA, leading to a decrease in the twist number and an increase in the writhe number of the previously relaxed plasmid DNA used in the assay, resulting in a positively supercoiled DNA. If this DNA is then nicked by a topoisomerase, the enzyme will remove supercoils and relax the DNA, followed by religation. Upon removal of the compound and the enzyme by butanol extraction, the twist will increase, so the writhe will decrease, resulting in more negatively supercoiled DNA, which runs faster on agarose gel. […] This assay should be verified by performing a second reaction using a negatively supercoiled plasmid as a substrate to confirm that the compound is not simply acting as an inhibitor of the Topo I.
The DNA Unwinding Assay Kit (Cat no. DUKSR001) was purchased from Inspiralis (Norwich, UK). […] After extraction, the aqueous layer was mixed with an equal volume of STEB buffer (40% (w/v) sucrose, Tris–HCl (100 mM, pH 8), EDTA (1 mM), bromophenol blue (0.5 mg/ml)), extracted with chloroform/isoamyl alcohol (24:1), and analysed on 1% agarose gel in TAE buffer at 70 V for 2 h, followed by ethidium bromide staining. […]

HepG2 cells [2] = experiment: Lysosome status (acridine orange and Lysotracker Deep Red staining); format: cell-based, human; details: HepG2, 3 h, total IC50 concentration (5, 4.5, 4, 4.5 µM)
Method: To analyse the condition of the lysosomes, the cells (2 × 10^5) were stained with the 100 nM LysoTracker™ Deep Red (Thermo Fisher Scientific) fluorescent dye for 30 min under growth conditions. The HepG2 and MRC-5 cells were treated with the tested compounds for 3 h.Final concentration of the compounds for HepG2 cells were as follows: 34–5 µM, 35–4.5 µM, 36–4 µM, 37–4.5 µM, whereas for MRC-5 were: 34–2.1 µM, 35–2 µM, 36–2.3 µM, 37–2.3 µM. Subsequently, the cells were trypsinized, rinsed with 1 ml of DPBS (Capricorn), and then incubated with the dye. Then, cytometric analysis of the stained cells was performed at an excitation/emission wavelength of 647/668 nm.
Lysosomal permeabilization was tested using the acridine orange (AO) dye. After treatment with the compounds, the cell pellets were suspended in 500 µl of DBPS containing AO (Sigma-Aldrich) at the final concentration of 0.5 µg/ml. […] Fluorescence intensity was analysed at an excitation wavelength of 488 nm, and two emission spectra were acquired at 505–550 and 600–650 nm for green and red fluorescence, respectively. The cells were analysed after incubation with the dye, with excitation at 488 nm, using a FACSCalibur flow cytometer (Becton Dickinson), and the data were analysed using the FlowJo software (Becton Dickinson). […]

HepG2 cells [3] = experiment: Ca2+ homeostasis determination (Rhod-2 AM); format: cell-based, human; details: HepG2, 24 h, total IC50 concentration
Method: Ca^2+ released was determined by the selective dye Calcium Rhod-2 AM (Thermo Fisher Scientific), which binds specifically to Ca^2+ ions that are related to an increase in dihydrorhod-2 AM concentration, and thus, an enhancement in fluorescence intensity occurred. After treatment, the cells were detached with trypsin (Corning®), washed with 1 ml of DPBS (Capricorn), and then resuspended in EMEM with 2.5 µM Rhod-2 AM. All the samples were incubated for 15 min at 37 °C in the dark, and fluorescence intensity was then analysed at an excitation/emission wavelength of 552/581 nm. The cells were analysed after incubation with the dye with excitation at 488 nm using a FACSCalibur flow cytometer (Becton Dickinson), and the data were analysed using the FlowJo software (Becton Dickinson).

HepG2 cells [4] = experiment: Reduced glutathione (GSH) level measurement (Thiolite Green); format: cell-based, human; details: HepG2, 24 h, total IC50 concentration
Method: The HepG2 cells were seeded at a density of 2 × 10^5 cells/well onto 12-well plates and under the same environmental conditions as the above experiments. The cells were then treated with the tested compounds at the final concentration equal to the total IC50 values for 24 h. The cellular GSH level was measured by staining with the nonfluorescent Thiolite Green dye, which emits strong fluorescence after reaction with thiols ([…]) according to the manufacturer’s protocol (AAT Bioquest, Sunnyvale, CA, USA). After incubation with the compounds (34–5 µM, 35–4.5 µM, 36–4 µM, 37–4.5 µM) the cells were detached with trypsin (Corning®) and washed twice with 1 ml of DPBS (Capricorn). Subsequently, the cells were suspended in a staining solution (50 µM) and incubated at 37 °C in a 5% CO2 environment for 30 min. After staining, the fluorescence intensity was analysed using a FACSCalibur flow cytometer with excitation at 488 nm, and the data were analysed using the FlowJo software (Becton Dickinson).

| Substance | DNA intercalation (supercoiled DNA fraction from relaxed plasmid) [1] | AO green/red ratio (LMP) (HepG2 cells [2]) | Ca2+ accumulation compared to control (HepG2 cells [3]) | GSH level, green fluorescence change compared to control (HepG2 cells [4]) |
| --- | --- | --- | --- | --- |
| 4-[(6-[(1,7-Dicarba-closo-dodecaborane-1-yl)ethylamino]hexyl)amino]-3-nitro-N-[2-(N-pyrrolidinyl)ethyl]-1,8-naphthalimide [Compound 37] | strongest DNA intercalator |  |  |  |
| 4-[(6-[(1,2-Dicarba-closo-dodecaborane-1-yl)ethylamino]hexyl)amino]-N-[2-(dimethylamino)ethyl]-3-nitro-1,8-naphthalimide [Compound 34] |  | approximately twofold |  |  |
| 4-[(6-[(1,2-Dicarba-closo-dodecaborane-1-yl)ethylamino]hexyl)amino]-3-nitro-N-[2-(N-pyrrolidinyl)ethyl]-1,8-naphthalimide [Compound 36] |  |  | slightest effect | not statistically significant |
| 4-[(6-[(1,7-Dicarba-closo-dodecaborane-1-yl)ethylamino]hexyl)amino]-N-[2-(dimethylamino)ethyl]-3-nitro-1,8-naphthalimide [Compound 35] |  | approximately twofold | more than threefold | 70% |
